Experimental data taken from patent publication US20090298811A1, “BENZIMIDAZOLONE DERIVATIVES” (Pfizer Inc, priority 2006, published 2009).

What was measured:
[1] = biological target: T1, human CB1 receptor (Homo sapiens, UniProt P21554); test: GTPγS binding on membranes of CHO cells expressing the human CB1 receptor; format: biochemical; design: expressed in transfected cells; host or cells: CHO cells (G418 selection); membranes; conditions: CHO cell membranes, [35S] GTPγS
Description: Membrane preparation: CHO cells expressing the human CB1 receptor were grown to 80% confluence in Ham's F-12 Nutrient Medium (Invitrogen) containing 10% fetal bovine serum (Invitrogen), 1% pen/strep (Invitrogen), 1% Nonessential amino acids (Invitrogen) and 500 μg/ml G418 (Invitrogen). Cells were released from flasks using Cell Dissociation Buffer (Invitrogen). Cells were pelleted by centrifugation at 500×G for 5 minutes. Membranes were prepared by resuspending cells in ice cold Assay Buffer (25 mM Tris pH 7.4, 5 mM EDTA, 5 mM EGTA, Complete Protease Inhibitor (Roche)). Cells were lysed with 12 strokes of a dounce homogenizer. Unlysed cells were pelleted by centrifugation at 500×G for 5 minutes. Membranes were pelleted by centrifugation at 25,000×G for 30 minutes. Membranes were resuspended in TEE, dounced 12 strokes, and pelleted a second time at 25,000×G for 30 minutes. Membrane pellet was resuspended in 50 mM Tris pH 7.4, 100 mM NaCl, 3 mM MgCl2, 0.2 mM EGTA, Complete Protease Inhibitor (Roche). Protein concentration was determined using the Micro-BCA Protein Assay Kit (Pierce) using BSA as a standard. Membranes were frozen and stored at −80 degrees Celsius until use. GTPγS Binding: 40 μl of test compound was incubated with 20 μl of [^35S] GTPγS (Perkin Elmer) (1250 Ci/millimole) and 140 μl of membrane homogenate (5 ug/well) in polypropylene 96-well plates (Corning). Final reaction conditions were 50 mM Tris pH 7.4, 100 mM NaCl, 3 mM […], 0.2 mM EGTA, 0.04% BSA. After incubation at 37 degrees Celsius for 45 minutes reactions were harvested by vacuum filtration through Unifilter GF/B-96 filters (Perkin Elmer) using a FilterMate Plate Harvester (Perkin Elmer). Filters were rinsed 4 times with ice cold 50 mM Tris pH 7.4, 3 mM MgCl2, 0.2 mM EGTA and dried at 50 degrees Celsius for at least 30 minutes. 40 μl of Microscint-20 (Perkin Elmer) was added per well, and plates were counted using a Top-Count Microplate Scintillation Counter (Perkin Elmer). Binding data were analyzed and EC50 values were calculated using Graph Pad Prism 4.0 Software.

[2] = biological target: T1, human CB1 receptor; test: Human CB1 receptor binding, [3H] CP-55,940 displacement on HEK cell membranes; design: expressed in transfected cells; membranes; conditions: [3H] CP-55,940 500 pM
Description: The Human CB1 receptor binding affinity and other biological activities of the compounds of this invention are determined by the following procedures.
Membrane preparation: Human Embryonic Kidney (HEK) Cells expressing the human CB1 receptor under transcriptional regulation of a tetracycline inducible promoter were grown in Dulbecco's Modified Essential Medium with sodium pyruvate (Invitrogen, Carlsbad, Calif.) containing 10% tetracycline free fetal bovine serum (Clonetech, Mountain View, Calif.) 100 μg/ml hygromycin (Calbiochem, San Diego, Calif.), 5 μg/ml blasticidin (Invitrogen). CB1 receptor expression was induced by addition of 1 μg/ml doxycycline (Calbiochem) and incubation for an additional 24 hours. Cells were released from flasks using Cell Dissociation Buffer (Invitrogen). Cells were pelleted by centrifugation at 500×G for 5 minutes. Membranes were prepared by resuspending cells in ice cold TEE Buffer (25 mM Tris pH 7.4, 5 mM EDTA, 5 mM EGTA, Complete Protease Inhibitor (Roche, Basel, Switzerland)). Cells were lysed with 12 strokes of a dounce homogenizer. Unlysed cells were pelleted by centrifugation at 500×G for 5 minutes. Membranes were pelleted by centrifugation at 25,000×G for 30 minutes. Membranes were resuspended in TEE, dounced 12 strokes, and pelleted a second time at 25,000×G for 30 minutes. Membrane pellet was resuspended in 50 mM Tris pH 7.4, 100 mM NaCl, 3 mM MgCl2, 0.2 mM EGTA, Complete Protease Inhibitor (Roche). Protein concentration was determined using the Micro-BCA Protein Assay Kit (Pierce, Rockford, Ill.) using BSA as a standard. Membranes were quick frozen and stored at −80 degrees Celsius until use. Binding experiments: 50 μl of test compound was incubated with 50 μl, of [^3H] CP-55,940 (Perkin Elmer, Boston, Mass.) (final concentration 500 pM) and 150 μl of membrane homogenate (1 μg/well) in polypropylene 96-well plates (Corning, Acton, Mass.). Final reaction conditions were 50 mM Tris pH 7.4, 100 mM NaCl, 3 mM MgCl2, 0.2 mM EGTA, 0.04% BSA. Nonspecific binding was determined by incubation with 50 μM WIN-55,212-2 (Tocris, Ellisville, Mo.). After incubation at room temperature for 60 minutes reactions were harvested by vacuum filtration through Unifilter GF/B-96 filters (Perkin Elmer) that had been presoaked in assay buffer containing 0.5% BSA (Sigma, St. Louis, Mo.) using a FilterMate Plate Harvester (Perkin Elmer). Filters were rinsed 4 times with 50 mM Tris pH 7.4, 0.025% Tween20 and dried at 50 degrees Celsius for at least 30 minutes. 40 μl of Microscint-20 (Perkin Elmer) was added per well, and plates were counted using a Top-Count Microplate Scintillation Counter (Perkin Elmer). Binding data were analyzed and EC50 and Ki values calculated using Graph Pad Prism 4.0 Software.

T1 sequence (P21554 whole entry): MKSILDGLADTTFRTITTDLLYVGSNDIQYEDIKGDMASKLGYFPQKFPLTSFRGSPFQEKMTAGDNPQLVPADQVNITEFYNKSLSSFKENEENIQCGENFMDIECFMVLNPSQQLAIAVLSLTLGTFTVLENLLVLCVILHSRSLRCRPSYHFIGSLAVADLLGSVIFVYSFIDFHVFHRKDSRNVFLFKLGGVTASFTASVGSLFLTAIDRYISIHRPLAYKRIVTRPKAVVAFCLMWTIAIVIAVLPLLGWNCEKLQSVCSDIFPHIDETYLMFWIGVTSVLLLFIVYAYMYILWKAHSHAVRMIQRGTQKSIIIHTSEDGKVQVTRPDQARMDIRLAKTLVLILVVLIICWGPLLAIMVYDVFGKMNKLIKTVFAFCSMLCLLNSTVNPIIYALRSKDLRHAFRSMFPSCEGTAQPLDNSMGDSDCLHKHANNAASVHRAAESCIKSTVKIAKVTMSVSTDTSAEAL

SMILES | EC50 [1] [nM] | Ki [2] [nM]
CCCCCn1c(=O)n(C(=O)N[C@H]2CCCC[C@@H]2O)c2ccccc21 [Example 193] | 622 | 67.4
CC(C)(C)[C@H](NC(=O)n1c(=O)n(CC2CCOCC2)c2ccccc21)C(=O)NC1CC1 [Example 298] | 88.6 | 5.27
CC(C)(C)[C@H](NC(=O)n1c(=O)n(CC2CCOCC2)c2cc(F)ccc21)C(=O)NC1CC1 [Example 310] | 173 | 30.2
CC(C)(C)[C@H](NC(=O)n1c(=O)n(Cc2ccccc2)c2ccccc21)C(=O)NCCCO [Example 361] | 249 | 24.7
CC(C)(C)[C@@H](CO)NC(=O)n1c(=O)n(CC2CCCCC2)c2cc(Br)ccc21 [Example 308] | 20.5 | 5.38
CC(C)(C)[C@H](NC(=O)n1c(=O)n(CC2CCCCO2)c2ccccc21)C(N)=O (stereo partly shown) [Example 224] | 176 | 29.9
CCc1nc(CNC(=O)n2c(=O)n(CC3CCOCC3)c3ccccc32)cs1 [Example 328] | 167 | 5.94
CC(C)(C)[C@H](NC(=O)n1c(=O)n(CC2CCOCC2)c2ccccc21)C(=O)NC1CCC1 [Example 300] | 260 | 41
CC(C)(C)[C@H](NC(=O)n1c(=O)n(CC2CCCCC2)c2ccc(Cl)cc21)C(N)=O [Example 166] | 31.5 | 2.52
CCCCCn1c(=O)n(C(=O)N[C@H](C(N)=O)C(C)(C)C)c2cccnc21 [Example 365] | 1030 | 95.1
CC(C)(C)[C@H](NC(=O)n1c(=O)n(CC2CCOCC2)c2ccccc21)C(=O)NCCO [Example 317] | 83.6 | 12
CC(C)(C)[C@H](NC(=O)n1c(=O)n(CC2CCCCC2)c2c(Cl)cccc21)C(N)=O [Example 173] | 2.5 | 0.34
CC(C)(C)[C@H](NC(=O)n1c(=O)n(CC2CCOCC2)c2ccccc21)C(=O)NC[C@H](O)CO [Example 345] | 1150 | 52.8
CC(C)(C)[C@H](NC(=O)n1c(=O)n(CC2CCCCC2)c2cc(F)ccc21)C(N)=O [Example 169] | 1 | 0.28
CC(C)(C)[C@H](NC(=O)n1c(=O)n(CCC2CCC2)c2ccccc21)C(N)=O [Example 217] | 3.2 | 1.28
Cc1cccc2c1n(CC1CCCCC1)c(=O)n2C(=O)N[C@H](C(N)=O)C(C)(C)C [Example 174] | 8.3 | 0.32
CC(C)(C)[C@@H](CO)NC(=O)n1c(=O)n(CC2CCOCC2)c2cc(F)ccc21 [Example 301] | 268 | 5.25
CC(C)(C)[C@H](NC(=O)n1c(=O)n(CC2CCCCC2)c2ncccc21)C(N)=O [Example 226] | 62.1 | 5.34
CCCCCn1c(=O)n(C(=O)N[C@H]2CCCc3ccccc32)c2ccccc21 [Example 199] | 40.1 | 0.9
O=C(N[C@H]1CCCc2ccccc21)n1c(=O)n(CC2CCCCC2)c2ccccc21 [Example 197] | 13.2 | 0.78
Cc1nc(CNC(=O)n2c(=O)n(CC3CCOCC3)c3ccccc32)cs1 [Example 341] | 355 | 24.7

SMILES | EC50 [1] [nM] | Ki [2] [nM]
CC(C)(C)[C@H](NC(=O)n1c(=O)n(CC2CCOCC2)c2ccccc21)C(N)=O [Example 132, N-[(1S)-1-(aminocarbonyl)-2,2-dimethylpropyl]-2-oxo-3-(tetrahydro-2H-pyran-4-ylmethyl)-2,3-dihydro-1H-benzimidazole-1-carboxamide] | 12.7 | 3.4
Cc1nc(C)c(CNC(=O)n2c(=O)n(CC3CCOCC3)c3ccccc32)s1 [Example 337] | 6490 | 12.1
CC(C)(C)[C@H](NC(=O)n1c(=O)n(CC2CCOCC2)c2ccccc21)C(=O)NCC(N)=O [Example 302] | 407 | 82.3
Cc1nc(C(F)(F)F)c(CNC(=O)n2c(=O)n(CC3CCOCC3)c3ccccc32)s1 [Example 349] | 157 | 19.1
CC(C)(C)[C@H](NC(=O)n1c(=O)n(CC2CCC(F)(F)CC2)c2ccccc21)C(N)=O [Example 306] | 3.45 | 0.31
CC(C)(C)[C@H](NC(=O)n1c(=O)n(CCCC(F)(F)F)c2ccccc21)C(N)=O [Example 293] | 32.4 | 1.45
CC(C)(C)[C@H](NC(=O)n1c(=O)n(Cc2ccccc2)c2ccccc21)c1nnc(N)o1 [Example 359] | 79.2 | 3.06
CC(C)(C)[C@@H](CO)NC(=O)n1c(=O)n(CC2CCCCC2)c2ccccc21 [Example 176] | 82.4 | 2.22
O=C(N[C@H]1CCCc2ccccc21)n1c(=O)n(CC2CCOCC2)c2ccccc21 [Example 276] | 5.8 | 0.374
Cc1ccc2c(c1)n(CC1CCCCC1)c(=O)n2C(=O)N[C@H](CC(C)C)C(N)=O [Example 267] | > 10000 | 18.4
CCCCCn1c(=O)n(C(=O)N[C@H](C(N)=O)C(C)(C)C)c2ccccc21 [Example 202] | 20.1 | 4.52
O=C(N[C@H]1c2ccccc2C[C@H]1O)n1c(=O)n(CC2CCOCC2)c2ccccc21 [Example 280] | 136 | 31
CC(C)(C)[C@H](NC(=O)n1c(=O)n(CC2CCOCC2)c2cc(F)ccc21)c1nnc(N)o1 [Example 347] | 229 | 9.5
CC(C)(C)[C@H](NC(=O)n1c(=O)n(CC2CCOCC2)c2cc(F)ccc21)C(=O)NCCCO [Example 355] | 361 | 6.72
CC(C)(C)[C@H](NC(=O)n1c(=O)n(CC2CCCCC2)c2cccc(F)c21)C(N)=O [Example 271] | 6.53 | 1.28
CC(C)(C)[C@H](NC(=O)n1c(=O)n(CCC(F)(F)F)c2ccccc21)C(N)=O [Example 227] | 245 | 10.2
Cc1ccc2c(c1)n(C(=O)N[C@H](C(N)=O)C(C)(C)C)c(=O)n2CC1CCCCC1 [Example 167] | 44.9 | 2.66
CC(C)(C)[C@H](NC(=O)n1c(=O)n(CC2CCOCC2)c2ccccc21)c1nnc(N)o1 [Example 319] | 96.3 | 5.17
CC(C)(C)[C@H](NC(=O)n1c(=O)n(CC2CCOCC2)c2cc(F)ccc21)C(=O)NCCO [Example 356] | 219 | 16.6
CC(C)(C)[C@H](NC(=O)n1c(=O)n(Cc2ccccc2)c2ccccc21)C(N)=O [Example 348] | 60.1 | 5.64
